Results as given in patent US20140200241A1, “PRODRUGS FOR TREATING MICROBIAL INFECTIONS” (Northeastern University, priority 2011, published 2014).
Converted amounts (≈) assume the structure as drawn. Like-named read-outs stand apart in the source and are kept apart here.

Experiments:
[1] = system: Staphylococcus aureus; details: for TI: human
[2] = system: MRSA; experiment: MRSA infection in C. elegans; format: in vivo
[3] = system: Bacillus anthracis; experiment: microbe, parasite or virus in culture
[4] = system: Staphylococcus aureus; experiment: microbe, parasite or virus in culture; details: for MIC: S. aureus
[5] = system: Yersinia pestis; experiment: microbe, parasite or virus in culture; details: for MIC: Y. pestis (FL2, PD30: KIM)
[6] = system: Salmonella typhimurium; experiment: MIC against Salmonella typhimurium; format: cell-based; details: Salmonella enterica
[7] = system: Caco-2; experiment: cells; details: Homo sapiens
[8] = system: Fadu; experiment: cells; details: Homo sapiens
[9] = system: IMR90; experiment: cells; details: Homo sapiens, IMR-90
[10] = system: IMR90; details: human
[11] = system: E. coli ΔnfsA/ΔnfnB; details: double mutant lacking both major nitroreductases vs wild type
[12] = system: E. coli ΔnfsA; experiment: microbe, parasite or virus in culture; details: Escherichia coli
[13] = system: HepG2; experiment: cells; details: Homo sapiens
[14] = system: Acinetobacter baumannii; details: human
[15] = system: Enterococcus faecalis; details: human
[16] = system: Enterococcus faecalis; experiment: microbe, parasite or virus in culture
[17] = system: Pseudomonas aeruginosa; details: human
[18] = system: Yersinia pestis; details: human fibroblast IC50 vs MIC, Y. pestis
[19] = system: Sheep's red blood cells
[20] = system: E. coli ΔnfsA/ΔnfnB; experiment: microbe, parasite or virus in culture; details: Escherichia coli
[21] = system: Caco-2; details: human
[22] = system: HepG2; details: human
[23] = in vitro; details: human
[24] = system: E. coli ΔnfnB; experiment: microbe, parasite or virus in culture; details: Escherichia coli
[25] = system: Escherichia coli; details: human
[26] = system: Pseudomonas aeruginosa; experiment: microbe, parasite or virus in culture
[27] = system: Escherichia coli; experiment: microbe, parasite or virus in culture
[28] = system: Fadu; details: human
[29] = system: Acinetobacter baumannii; experiment: microbe, parasite or virus in culture
[30] = system: E. coli long-chromosomal-deletion mutants; details: 50 μg/ml of prodrug
[31] = system: Francisella tularensis; details: human fibroblast IC50 vs MIC, F. tularensis
[32] = system: Bacillus anthracis; details: human fibroblast IC50 vs MIC, B. anthracis
[33] = system: Francisella tularensis; experiment: microbe, parasite or virus in culture; details: for MIC: F. tularensis SchuS4
[34] = system: S. aureus; details: S. aureus mouse infection model; cited from earlier work
[35] = system: E. coli ΔargC; experiment: microbe, parasite or virus in culture; details: Escherichia coli
[36] = system: E. coli ΔybgJ; experiment: microbe, parasite or virus in culture; details: Escherichia coli

SMILES	TI [1]	MBC [3] [µg/mL]	MIC [3] [µg/mL]	MIC [4] [µg/mL]	MIC [5] [µg/mL]	IC50 [8] [µg/mL]	IC50 [9] [µg/mL]	TI [10]	IC50 [13] [µg/mL]	TI [14]	MIC [16] [µg/mL]	TI [17]	TI [18]	TI [22]	IC50 [23] [µg/mL]	TI [25]	MIC [26] [µg/mL]	MIC ([27]; read-out: MIC Against E. coli) [µg/mL]	TI [28]	MIC [29] [µg/mL]	further results
O=[N+]([O-])c1ccc(/C=[N+](\[O-])CCO)o1 [FL1]	160	0.78 (≈ 3.9 µM)	0.35 (≈ 1.75 µM)	1.56 (≈ 7.79 µM)	≤ 0.78	62.5 (≈ 312 µM)	250 (≈ 1250 µM)	320	31.2 (≈ 156 µM)	20	3.12 (≈ 15.6 µM)	10	≧320	40	250 (≈ 1250 µM)	320	25 (≈ 125 µM)	0.78 (≈ 3.9 µM)	80	12.5 (≈ 62.5 µM)	in vivo efficacy [2]: in vivo efficacy against a MRSA infection in C. elegans; MBC [4]: 3.25 µg/mL (≈ 16.2 µM); MIC [6]: 5 µg/mL (≈ 25 µM); IC50 [7]: 200 µg/mL (≈ 999 µM); decrease of activity [11]: 16 fold; MIC [12]: 2.5 µg/mL (≈ 12.5 µM); TI [15]: 80; Hemolytic activity [19]: no hemolytic activity; MIC [20]: 12.5 µg/mL (≈ 62.5 µM); TI [21]: 256; MIC [24]: 0.16 µg/mL (≈ 0.799 µM); MBC [27]: 0.78 µg/mL (≈ 3.9 µM); MIC [27]: 0.78 µg/mL (≈ 3.9 µM)
Oc1c(Br)cc(Br)c2cccnc12 [FL2]		> 50	1.5 (≈ 4.95 µM)	≤ 1.5	1.5 (≈ 4.95 µM)	31.2 (≈ 103 µM)	100 (≈ 330 µM)	67	62.5 (≈ 206 µM)	16	3.25 (≈ 10.7 µM)	>2	67	42	100 (≈ 330 µM)	67	> 50	1.5 (≈ 4.95 µM)	21	6.25 (≈ 20.6 µM)	Resistance (growth in presence of prodrug) [30]: observed in a large number of deletions; MBC [5]: 12.5 to 25 µg/mL (≈ 41.3 to 82.5 µM); TI [31]: 1,031; TI [32]: 67; MBC [33]: 1.5 to 3.12 µg/mL (≈ 4.95 to 10.3 µM); MIC [33]: 0.097 µg/mL (≈ 0.32 µM); MBC [27]: 3 µg/mL (≈ 9.9 µM)
COc1ccccc1NC(=O)Nc1ccc2ccccc2c1 [INF271]																					efficacy [34]: shows efficacy in a S. aureus mouse infection model
O=C(/C=C(\O)C(F)(F)F)c1ccc(Cl)cc1 [PD30]	80	> 50	0.78 (≈ 3.11 µM)	3.12 (≈ 12.5 µM)	0.78 (≈ 3.11 µM)	62.5 (≈ 249 µM)	250 (≈ 998 µM)	40	62.5 (≈ 249 µM)	20	6.25 (≈ 24.9 µM)	>2	320	10	250 (≈ 998 µM)	40	> 50	6.25 (≈ 24.9 µM)	10	12.5 (≈ 49.9 µM)	MIC ([1]; S. aureus): 3.12 µg/mL (≈ 12.4 µM); MBC [5]: 3.12 to 6.25 µg/mL (≈ 12.4 to 24.9 µM); MIC [35]: 50 µg/mL (≈ 200 µM); IC50 [7]: 200 µg/mL (≈ 798 µM); TI [15]: 40; Hemolytic activity [19]: no hemolytic activity; TI [21]: 32; TI [31]: 1,282; TI [32]: 320; MBC [33]: 0.78 to 1.5 µg/mL (≈ 3.11 to 5.99 µM); MIC [33]: 0.195 µg/mL (≈ 0.778 µM); MIC [36]: 100 µg/mL (≈ 399 µM)
